Each compound was assayed against T1, cruzain (Trypanosoma cruzi, UniProt P25779) (assay: Aggregation counter-assays: cruzain inhibition at varying Triton X-100 and after pre-incubation with BSA). Conditions: 0.001% Triton + BSA 1 mg/mL; compound µM: MMV687246 12.5, MMV687812 3.125, MMV688179 1.563, MMV688362 3.125, MMV688466 6.25, MMV690028 25.
Assay type: biochemical
Design: Cruzain is the truncated, recombinant-expressed cruzipain 1; Brian Shoichet (University of California San Francisco)
Experimental: To assess the effects of the Triton X-100 concentration on cruzain inhibition, assays were performed using 0.001%, 0.01%, and 0.1% Triton X-100. To evaluate the impact of pre-incubation with bovine serum albumin (BSA), 50 µL of a solution of the compound in the assay buffer containing 0.001% of Triton X-100 was incubated with 4 mg/mL of BSA (Sigma-Aldrich) for 10′ in a 96-well plate. Next, 50 µL of a solution containing circa 2 nM of cruzain in the same buffer was added to each well and incubated for another 10′. Finally, 100 µL of a solution of 5 µM Z-FR-AMC in the same buffer was added to each well and the fluorescence was immediately read. The final compound concentration varies and was selected to be near the compound IC50.
To investigate if inhibition was due to colloidal aggregation, a common cause of unspecific enzyme inhibition in in vitro assays, we employed two well-established experiments: the comparison of percentages of inhibition at varying Triton X-100 concentrations and the effect of compound pre-incubation with BSA on the percentage of inhibition. […] Pre-incubating a compound that aggregates with BSA saturates the protein-binding capacity of the aggregate.

T1 sequence (P25779 123-337 limits assumed): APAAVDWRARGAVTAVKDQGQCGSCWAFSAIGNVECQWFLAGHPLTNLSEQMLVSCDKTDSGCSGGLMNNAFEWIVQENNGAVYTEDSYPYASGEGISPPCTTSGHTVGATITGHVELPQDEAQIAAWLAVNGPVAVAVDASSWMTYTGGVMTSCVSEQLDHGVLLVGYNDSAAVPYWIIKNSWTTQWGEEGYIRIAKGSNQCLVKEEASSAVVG

SMILES	% Cruzain Inhibition (Mean ± SEM) 0.001% Triton + BSA 1 mg/mL [%]
CN1CCN(CCCOc2ncc(Nc3ncc(-c4ccc(C(F)(F)F)c(F)c4)nc3C(N)=O)cn2)CC1 [MMV687812]	85 ± 1
Cn1ccnc1CNCCS(=O)(=O)c1cccc(Nc2ccc(-c3cccc(F)c3)cn2)c1 [MMV688466]	96 ± 3
COc1ccc(C2=NN(C3CCCCCC3)C(=O)C2(C)C)cc1OCCCCOc1ccc(-c2nn[nH]n2)cc1 [MMV690028]	91 ± 7

Same assay, conditions: 0.001% Triton X-100; compound µM: MMV687246 12.5, MMV687812 3.125, MMV688179 1.563, MMV688362 3.125, MMV688466 6.25, MMV690028 25

SMILES	% Cruzain Inhibition (Mean ± SEM) 0.001% Triton X-100 [%]
CN1CCN(CCCOc2ncc(Nc3ncc(-c4ccc(C(F)(F)F)c(F)c4)nc3C(N)=O)cn2)CC1 [MMV687812]	92 ± 0
Cn1ccnc1CNCCS(=O)(=O)c1cccc(Nc2ccc(-c3cccc(F)c3)cn2)c1 [MMV688466]	83 ± 3
COc1ccc(C2=NN(C3CCCCCC3)C(=O)C2(C)C)cc1OCCCCOc1ccc(-c2nn[nH]n2)cc1 [MMV690028]	69 ± 14

Same assay, conditions: 0.01% Triton X-100; compound µM: MMV687246 12.5, MMV687812 3.125, MMV688179 1.563, MMV688362 3.125, MMV688466 6.25, MMV690028 25

SMILES	% Cruzain Inhibition (Mean ± SEM) 0.01% Triton X-100 [%]
Cn1ccnc1CNCCS(=O)(=O)c1cccc(Nc2ccc(-c3cccc(F)c3)cn2)c1 [MMV688466]	32 ± 5

Same assay, conditions: 0.1% Triton X-100; compound µM: MMV687246 12.5, MMV687812 3.125, MMV688179 1.563, MMV688362 3.125, MMV688466 6.25, MMV690028 25

SMILES	% Cruzain Inhibition (Mean ± SEM) 0.1% Triton X-100 [%]
CN1CCN(CCCOc2ncc(Nc3ncc(-c4ccc(C(F)(F)F)c(F)c4)nc3C(N)=O)cn2)CC1 [MMV687812]	54 ± 1
Cn1ccnc1CNCCS(=O)(=O)c1cccc(Nc2ccc(-c3cccc(F)c3)cn2)c1 [MMV688466]	82 ± 11

Same assay, conditions: near the IC50

SMILES	Effect of a 10-fold increase in the concentration of Triton X-100 on cruzain inhibition	Effect of pre-incubation of the compound with BSA on cruzain inhibition
CN1CCN(CCCOc2ncc(Nc3ncc(-c4ccc(C(F)(F)F)c(F)c4)nc3C(N)=O)cn2)CC1 [MMV687812]	some reduction in the inhibition	did not reduce the inhibition of cruzain

Each compound was assayed against T1, cruzain (assay: biochemical). Conditions: 0’ (no pre-incubation); sheet Screening results.
In short: (§1)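 Recombinant enzymes assayed by Z-Phe-Arg-AMC cleavage at 25 °C, fluorescence 340/440 nm over 5–7 min, with 10 min or no enzyme–compound preincubation.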

SMILES	Cruzain Inhibition 0’ [%]
COc1nc2ccc(Br)cc2cc1[C@@H](c1ccccc1)[C@@](O)(CCN(C)C)c1cccc2ccccc12 [MMV689758]	19

Same assay, conditions: 10’ (pre-incubation); sheet Screening results

SMILES	Cruzain Inhibition 10’ [%]
COc1nc2ccc(Br)cc2cc1[C@@H](c1ccccc1)[C@@](O)(CCN(C)C)c1cccc2ccccc12 [MMV689758]	10

Same assay, conditions: IC50 (µM ± SEM %) Cruzain 0′, no pre-incubation

SMILES	IC50 [µM]
CN1CCN(CCCOc2ncc(Nc3ncc(-c4ccc(C(F)(F)F)c(F)c4)nc3C(N)=O)cn2)CC1 [MMV687812]	2.2 ± 0.3
Cn1ccnc1CNCCS(=O)(=O)c1cccc(Nc2ccc(-c3cccc(F)c3)cn2)c1 [MMV688466]	9 ± 1
COc1ccc(C2=NN(C3CCCCCC3)C(=O)C2(C)C)cc1OCCCCOc1ccc(-c2nn[nH]n2)cc1 [MMV690028]	10 ± 3

Same assay, conditions: IC50 (µM ± SEM %) Cruzain 10′ inc, 10′ pre-incubation

SMILES	IC50 [µM]
CN1CCN(CCCOc2ncc(Nc3ncc(-c4ccc(C(F)(F)F)c(F)c4)nc3C(N)=O)cn2)CC1 [MMV687812]	2.6 ± 0.03
Cn1ccnc1CNCCS(=O)(=O)c1cccc(Nc2ccc(-c3cccc(F)c3)cn2)c1 [MMV688466]	25 ± 6
COc1ccc(C2=NN(C3CCCCCC3)C(=O)C2(C)C)cc1OCCCCOc1ccc(-c2nn[nH]n2)cc1 [MMV690028]	13 ± 5

Same assay, conditions: IC50 against cruzain and TbrCatL (summary), cruzain and TbrCatL, with or without pre-incubation

SMILES	IC50 [µM]
CN1CCN(CCCOc2ncc(Nc3ncc(-c4ccc(C(F)(F)F)c(F)c4)nc3C(N)=O)cn2)CC1 [MMV687812]	2 to 4

Same assay, conditions: read-out: Cruzain 0’ Inhibition, 0’ (pre-incubation time); sheet "Screening results"

SMILES	inhibition at 5 µM [%]
CN1CCN(CCCOc2ncc(Nc3ncc(-c4ccc(C(F)(F)F)c(F)c4)nc3C(N)=O)cn2)CC1 [MMV687812]	42

Same assay, conditions: read-out: Cruzain 10’ Inhibition, 10’ (pre-incubation time); sheet "Screening results"

SMILES	inhibition at 5 µM [%]
CN1CCN(CCCOc2ncc(Nc3ncc(-c4ccc(C(F)(F)F)c(F)c4)nc3C(N)=O)cn2)CC1 [MMV687812]	27

Same assay, conditions: read-out: Inhibition at 5 µM (Mean ± SEM %) Cruzain 0′, 5 µM, no pre-incubation, initial screening

SMILES	inhibition at 5 µM [%]
CN1CCN(CCCOc2ncc(Nc3ncc(-c4ccc(C(F)(F)F)c(F)c4)nc3C(N)=O)cn2)CC1 [MMV687812]	41 ± 2
Cn1ccnc1CNCCS(=O)(=O)c1cccc(Nc2ccc(-c3cccc(F)c3)cn2)c1 [MMV688466]	41 ± 2
COc1ccc(C2=NN(C3CCCCCC3)C(=O)C2(C)C)cc1OCCCCOc1ccc(-c2nn[nH]n2)cc1 [MMV690028]	34 ± 8

Same assay, conditions: read-out: Inhibition at 5 µM (Mean ± SEM %) Cruzain 10′ inc, 5 µM, 10′ pre-incubation, initial screening

SMILES	inhibition at 5 µM [%]
CN1CCN(CCCOc2ncc(Nc3ncc(-c4ccc(C(F)(F)F)c(F)c4)nc3C(N)=O)cn2)CC1 [MMV687812]	27
Cn1ccnc1CNCCS(=O)(=O)c1cccc(Nc2ccc(-c3cccc(F)c3)cn2)c1 [MMV688466]	49 ± 5
COc1ccc(C2=NN(C3CCCCCC3)C(=O)C2(C)C)cc1OCCCCOc1ccc(-c2nn[nH]n2)cc1 [MMV690028]	27 ± 4

Same assay, conditions: read-out: Inhibition at 100 µM (Mean ± SEM %) Cruzain 0′, 100 µM, no pre-incubation, solid samples

SMILES	inhibition at 100 µM [%]
CN1CCN(CCCOc2ncc(Nc3ncc(-c4ccc(C(F)(F)F)c(F)c4)nc3C(N)=O)cn2)CC1 [MMV687812]	100
Cn1ccnc1CNCCS(=O)(=O)c1cccc(Nc2ccc(-c3cccc(F)c3)cn2)c1 [MMV688466]	58 ± 27
COc1ccc(C2=NN(C3CCCCCC3)C(=O)C2(C)C)cc1OCCCCOc1ccc(-c2nn[nH]n2)cc1 [MMV690028]	100

Same assay, conditions: read-out: Inhibition at 100 µM (Mean ± SEM %) Cruzain 10′ inc, 100 µM, 10′ pre-incubation, solid samples

SMILES	inhibition at 100 µM [%]
CN1CCN(CCCOc2ncc(Nc3ncc(-c4ccc(C(F)(F)F)c(F)c4)nc3C(N)=O)cn2)CC1 [MMV687812]	95
Cn1ccnc1CNCCS(=O)(=O)c1cccc(Nc2ccc(-c3cccc(F)c3)cn2)c1 [MMV688466]	98 ± 1
COc1ccc(C2=NN(C3CCCCCC3)C(=O)C2(C)C)cc1OCCCCOc1ccc(-c2nn[nH]n2)cc1 [MMV690028]	100

Same assay, conditions: read-out: Inhibition of cruzain or TbrCatL (either enzyme) in the initial screening, 5 µM; either cruzain or TbrCatL, with or without pre-incubation

SMILES	inhibition at 5 µM [%]
CN1CCN(CCCOc2ncc(Nc3ncc(-c4ccc(C(F)(F)F)c(F)c4)nc3C(N)=O)cn2)CC1 [MMV687812]	≥ 40
Cn1ccnc1CNCCS(=O)(=O)c1cccc(Nc2ccc(-c3cccc(F)c3)cn2)c1 [MMV688466]	≥ 40
COc1ccc(C2=NN(C3CCCCCC3)C(=O)C2(C)C)cc1OCCCCOc1ccc(-c2nn[nH]n2)cc1 [MMV690028]	≥ 40

The compounds below were run against T2, TbrCatL (Trypanosoma brucei rhodesiense, UniProt Q95PM0) (assay: TbrCatL enzymatic inhibition assay (cleavage of fluorogenic substrate Z-FR-AMC)). Conditions: 0’ (no pre-incubation); sheet Screening results.
T2 construct: Conor Caffrey (University of California San Diego)
T2 sequence (Q95PM0 entry or part of it): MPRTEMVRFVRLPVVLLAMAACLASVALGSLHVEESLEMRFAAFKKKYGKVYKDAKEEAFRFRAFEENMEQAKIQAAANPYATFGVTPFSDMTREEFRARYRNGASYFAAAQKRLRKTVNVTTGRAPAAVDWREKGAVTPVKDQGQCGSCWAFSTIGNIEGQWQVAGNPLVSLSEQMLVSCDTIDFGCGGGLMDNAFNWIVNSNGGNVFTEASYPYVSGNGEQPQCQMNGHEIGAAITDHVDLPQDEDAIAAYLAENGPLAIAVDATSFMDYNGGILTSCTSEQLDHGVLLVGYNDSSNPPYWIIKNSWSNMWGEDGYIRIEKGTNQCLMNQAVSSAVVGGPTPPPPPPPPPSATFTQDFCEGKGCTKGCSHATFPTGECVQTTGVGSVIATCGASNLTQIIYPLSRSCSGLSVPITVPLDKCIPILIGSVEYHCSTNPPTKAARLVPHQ
Assay type: biochemical
In short: as §1

SMILES	TbrCatL Inhibition 0’ [%]
COc1nc2ccc(Br)cc2cc1[C@@H](c1ccccc1)[C@@](O)(CCN(C)C)c1cccc2ccccc12 [MMV689758]	9

Same assay, conditions: 10’ (pre-incubation); sheet Screening results

SMILES	TbrCatL Inhibition 10’ [%]
COc1nc2ccc(Br)cc2cc1[C@@H](c1ccccc1)[C@@](O)(CCN(C)C)c1cccc2ccccc12 [MMV689758]	-1.4

Same assay, conditions: IC50 (µM ± SEM %) TbrCatL 0′, no pre-incubation

SMILES	IC50 [µM]
CN1CCN(CCCOc2ncc(Nc3ncc(-c4ccc(C(F)(F)F)c(F)c4)nc3C(N)=O)cn2)CC1 [MMV687812]	3.45 ± 0.05
Cn1ccnc1CNCCS(=O)(=O)c1cccc(Nc2ccc(-c3cccc(F)c3)cn2)c1 [MMV688466]	4 ± 1
COc1ccc(C2=NN(C3CCCCCC3)C(=O)C2(C)C)cc1OCCCCOc1ccc(-c2nn[nH]n2)cc1 [MMV690028]	18 ± 7

Same assay, conditions: IC50 (µM ± SEM %) TbrCatL 10′ inc, 10′ pre-incubation

SMILES	IC50 [µM]
CN1CCN(CCCOc2ncc(Nc3ncc(-c4ccc(C(F)(F)F)c(F)c4)nc3C(N)=O)cn2)CC1 [MMV687812]	3.6 ± 0.3
Cn1ccnc1CNCCS(=O)(=O)c1cccc(Nc2ccc(-c3cccc(F)c3)cn2)c1 [MMV688466]	11 ± 4
COc1ccc(C2=NN(C3CCCCCC3)C(=O)C2(C)C)cc1OCCCCOc1ccc(-c2nn[nH]n2)cc1 [MMV690028]	27 ± 3

Same assay, conditions: read-out: Inhibition at 5 µM (Mean ± SEM %) TbrCatL 0′

SMILES	inhibition at 5 µM [%]
CN1CCN(CCCOc2ncc(Nc3ncc(-c4ccc(C(F)(F)F)c(F)c4)nc3C(N)=O)cn2)CC1 [MMV687812]	11 ± 3
Cn1ccnc1CNCCS(=O)(=O)c1cccc(Nc2ccc(-c3cccc(F)c3)cn2)c1 [MMV688466]	29 ± 2
COc1ccc(C2=NN(C3CCCCCC3)C(=O)C2(C)C)cc1OCCCCOc1ccc(-c2nn[nH]n2)cc1 [MMV690028]	49 ± 4

Same assay, conditions: read-out: Inhibition at 5 µM (Mean ± SEM %) TbrCatL 10′ inc

SMILES	inhibition at 5 µM [%]
CN1CCN(CCCOc2ncc(Nc3ncc(-c4ccc(C(F)(F)F)c(F)c4)nc3C(N)=O)cn2)CC1 [MMV687812]	5 ± 1
Cn1ccnc1CNCCS(=O)(=O)c1cccc(Nc2ccc(-c3cccc(F)c3)cn2)c1 [MMV688466]	54 ± 8
COc1ccc(C2=NN(C3CCCCCC3)C(=O)C2(C)C)cc1OCCCCOc1ccc(-c2nn[nH]n2)cc1 [MMV690028]	23 ± 4

Same assay, conditions: read-out: Inhibition at 100 µM (Mean ± SEM %) TbrCatL 0′

SMILES	inhibition at 100 µM [%]
CN1CCN(CCCOc2ncc(Nc3ncc(-c4ccc(C(F)(F)F)c(F)c4)nc3C(N)=O)cn2)CC1 [MMV687812]	90 ± 2
Cn1ccnc1CNCCS(=O)(=O)c1cccc(Nc2ccc(-c3cccc(F)c3)cn2)c1 [MMV688466]	96 ± 3
COc1ccc(C2=NN(C3CCCCCC3)C(=O)C2(C)C)cc1OCCCCOc1ccc(-c2nn[nH]n2)cc1 [MMV690028]	100

Same assay, conditions: read-out: Inhibition at 100 µM (Mean ± SEM %) TbrCatL 10′ inc

SMILES	inhibition at 100 µM [%]
CN1CCN(CCCOc2ncc(Nc3ncc(-c4ccc(C(F)(F)F)c(F)c4)nc3C(N)=O)cn2)CC1 [MMV687812]	93
Cn1ccnc1CNCCS(=O)(=O)c1cccc(Nc2ccc(-c3cccc(F)c3)cn2)c1 [MMV688466]	100
COc1ccc(C2=NN(C3CCCCCC3)C(=O)C2(C)C)cc1OCCCCOc1ccc(-c2nn[nH]n2)cc1 [MMV690028]	88 ± 3

Same assay, conditions: read-out: TbrCatL 0’ Inhibition

SMILES	inhibition at 5 µM [%]
CN1CCN(CCCOc2ncc(Nc3ncc(-c4ccc(C(F)(F)F)c(F)c4)nc3C(N)=O)cn2)CC1 [MMV687812]	11

Same assay, conditions: read-out: TbrCatL 10’ Inhibition

SMILES	inhibition at 5 µM [%]
CN1CCN(CCCOc2ncc(Nc3ncc(-c4ccc(C(F)(F)F)c(F)c4)nc3C(N)=O)cn2)CC1 [MMV687812]	5.3
